# Assay results taken from a melting point compilation (Tetko et al.; mined from patent text by program, amines drawn as free bases though some values may be those of a salt).
row,SMILES,melting point [°C]
1,O=C(Nc1ccccc1)Nn1ccc2ccccc21,243
2,Cn1c(CNCC(C)(C)C)cc2cc(NC(=O)c3ccc(C#CC4(O)CCC4)cc3)ccc21,160 to 161
3,CCOP(=O)(OCC)C1(P(=O)(OCC)OCC)CC(C(=O)C(C)c2ccc(-c3ccccc3)c(F)c2)=NN1 (stereo not drawn),109 to 110
4,Cc1c(-c2ccc3c(c2)C2(CCCCC2)C(=O)N3)sc2ccc(Cl)cc12,256 to 258
5,O=C(O)C(CCc1ccccc1)CC1(C(=O)Nc2cccnc2)CCCC1 (stereo not drawn),80 to 85
6,Cc1ccc(-c2ccccc2C(=O)N(C)NC(N)=O)cc1,217 to 218
7,Nc1cccc(Cn2c(-c3ccccc3Cl)cc3ccc(Oc4cncnc4)cc32)n1,115 to 117
8,CC(=O)Nc1ccc(N(c2ccccc2)C2(c3ccc(N(C)C)cc3)OC(=O)c3ccccc32)cc1 (stereo not drawn),182 to 184
9,CCOC(=O)OC1=C(c2c(C)cc(C)cc2C)C(=O)N(N(C)C)C12CCN(OC)CC2,116 to 119
10,COCc1c(Cl)nnc(Cl)c1OC,28 to 32
11,COc1ccc2[nH]cc(-c3cc4c(C(N)=O)ccnc4[nH]3)c2c1,> 320
12,O=CN1CCC(C(=O)O)=Cc2cc(Br)ccc21,248 to 250
13,CC1CC2C3CCC4=CC(=O)C=CC4(C)C3=CCC2(C)C1(O)C(=O)CO (stereo not drawn),216 to 218
14,Cc1ccc(C=NNC(=O)c2ccc(O)cc2)cc1,253
15,CC(C)Nc1cccnc1N1CCN(C(=O)c2ccc(C(=O)N(C)CCO)cc2)CC1,131 to 132
16,COc1ccc(CCN2CCN(c3cccccc3=O)CC2)cc1OC,83 to 85
17,O=C(Nc1cc(C(F)(F)F)cc(C(F)(F)F)c1)C1C(=O)C2CCC(CC2)C1=O (stereo not drawn),286 to 288
18,CC(O)(COc1ccc(-c2ccc(Cl)cc2)cc1)CN1CCCC1 (stereo not drawn),121 to 122
19,COC(=O)c1ccc(Cn2c(=O)c(C)c3sc(C(=O)NCc4ccc(F)cc4)cn3c2=O)cc1Cl,176 to 178
20,CCOC(=O)N1CCC(N=c2oc3ncnc(N)c3n2Cc2ccc(F)cc2)CC1,175
21,COC(=O)c1cc([N+](=O)[O-])c(O)c([N+](=O)[O-])c1,110 to 115
22,CNC(=O)Nc1ccc(F)cc1F,182 to 183
23,O=CCCc1cnc(-c2ccccc2)s1,192
24,Cc1nc(Cl)c(C(=O)O)cc1Cl,123 to 138
25,CCc1ccc(C(=O)O)c2ccccc12,125 to 127
26,CC(C)(C)OC(=O)NCC(Cl)c1ccsc1 (stereo not drawn),63 to 65
27,CCCCCCCCSCCCN=C=O,84 to 85

row,SMILES,melting point [°C]
1,COc1ccc(-c2cc(=O)n(Cc3ccccn3)nc2-c2ccc(OC)cc2)cc1,116 to 117
2,O=C(NCc1nccs1)c1cc(N2CCN(Cc3ccc(F)cc3)C2=O)n[nH]1,272 to 274
3,O=C(O)C1CCCN1c1ncccc1[N+](=O)[O-] (stereo not drawn),137 to 139
4,NC(=O)c1c(Cl)c(-c2ccccc2)n2c1CN(S(=O)(=O)c1ccc([N+](=O)[O-])cc1)CC2,203 to 205
5,NC(=O)c1ccc(NCc2ccc(F)cc2)cn1,166 to 169
6,COc1c2occc2cc2c(C)cc(=O)oc12,167 to 168
7,Cc1cc2c3c(ccc2cc1Br)OC(=O)C3(C)C,187 to 189
8,COCCOc1ccc(/C=C/C(=O)O)c(OCc2nc(-c3ccccc3)oc2C)c1,194 to 196
9,COCCOc1cc2ncnc(Nc3cc(O)c(Cl)cc3F)c2cc1OC,> 250
10,Fc1ccc(-c2cc(SC(F)(F)C(F)F)[nH]c2-c2ccc(F)cc2)cc1,70.5 to 71
11,ON=C1CCC(C2CCCC2)=C1c1ccc(F)cc1,204 to 205
12,CCc1ccc2c(O)cnn2c1,78 to 79
13,O=C(NN1CCCCC1)C1=NN(c2ccc(Cl)cc2Cl)C(c2ccccc2)C1 (stereo not drawn),160 to 164
14,N#Cc1nn(-c2c(Cl)cc(C(F)(F)F)cc2Cl)c(N)c1-c1ccoc1S(=O)C(F)(F)F (stereo not drawn),141 to 142
15,CC(=O)N(c1ccc(F)c(Cl)c1)c1ncnc2cc(OCCCN3CCOCC3)c([N+](=O)[O-])cc12,154
16,CC(C)(C)Nc1cc(N2CCCNCC2)nc(NC(C)(C)C)n1,127 to 132
17,CCOc1nn(Cc2ccc(OCc3cncc(-c4ccccc4)c3)cc2)cc1CCC(=O)O,92 to 93
18,CC=CCn1c(C)c(C)c2cnnc(CCc3ccccc3)c21,98 to 106
19,N#CC(=Cc1ccc(O)c(O)c1)C(N)=S,213
20,O=C(Nc1cccc(F)c1)Nc1ccnc(C(F)(F)F)c1,165 to 167
21,COC(=O)C1Cc2c(C)ccc(C)c2N1 (stereo not drawn),80
22,O=C(O)c1ccc(NCCNC(=O)C2Cc3ccccc3N2S(=O)(=O)c2ccc(-c3cc(C(F)(F)F)ccc3Cl)cc2)cc1 (stereo not drawn),130
23,COc1cccc(C(C#N)=NOS(C)(=O)=O)c1,105 to 107
24,COc1ccc([N+](=O)[O-])c(CC#N)n1,116 to 117
25,O=C(NS(=O)(=O)NCCc1ccccc1)OCc1ccccc1,120 to 121
26,CS(=O)(=O)Nc1cc2occ(C#N)c(=O)c2cc1Oc1ccccc1,220

# Results, then the molecule that gave them:
row,melting point [°C],SMILES
1,97 to 99,CC(C)C(=O)OC1C(n2ccc(N)nc2=O)OC(COC(=O)c2ccc(Cl)cc2)C1(C#C[Si](C)(C)C)OC(=O)C(C)C (stereo not drawn)
2,84 to 86,CCOC(=O)CCCCc1cn(C(c2ccccc2)(c2ccccc2)c2ccccc2)cn1
3,159 to 161,Cc1c(NC(=O)CC(C)(C)C)c(C)c2c(c1C(O)CO)OCC2c1ccc(C(C)C)cc1 (stereo not drawn)
4,174 to 182,CC1=C(C(=O)O)Cc2ccc(C)cc21
5,81 to 82,Cc1cc(C2=C(c3cccc(F)c3)C(=O)C(C)(C)O2)ccc1S(N)(=O)=O
6,159 to 163,CC(C)[C@H](NC(=O)OCc1ccc2ccccc2n1)C(=O)N[C@@H](Cc1ccccc1)[C@@H](O)C[C@H](Cc1ccccc1)NC(=O)OCc1cccnc1
7,191 to 192,COC1=CCc2cccc(NC(C)=O)c2C1
8,209 to 211,O=C(Nc1ccc(Cl)c(Cl)c1)NS(=O)(=O)c1ccc2c(c1)C(=O)CO2
9,78 to 79,N#Cc1ccc2sc(CO)cc2c1
10,166,FC(F)(F)COc1ccnc(Oc2ccc(CCNc3ncnc4nccnc34)cc2)c1
11,108 to 110,NC(=O)COC(=O)c1c(F)cccc1F
12,122 to 123,COCCOCC(=O)Nc1cccc2c1C1(COc3cc4c(cc31)OCCO4)C(=O)N2C (stereo not drawn)
13,97 to 99,C#CCCOC(c1ccccc1)(c1ccccc1)c1ccccc1
14,199 to 200,CC(C)(C)c1cc2c(cc1Br)C=C(C(=O)O)C(C(F)(F)F)O2 (stereo not drawn)
15,98 to 108,NC1=NC(c2ccc(OC(F)F)cc2)(c2cccc(-c3cccnc3F)c2)C2=NCC3(CC3)CN12 (stereo not drawn)
16,137 to 138,CC1(C)C=Cc2cc(C#N)c(N)cc2O1
17,54 to 58,CCN(C=O)c1nc2ccc(CCc3ccco3)cc2o1
18,147 to 149,COc1nc2cc([N+](=O)[O-])cc(C=O)c2nc1OC
19,114 to 116,CN(C)CCCN1CCC(O)(c2ccccc2)C(C(=O)c2ccccc2)C1 (stereo not drawn)
20,206 to 208,COCCn1nc2c(N)nc3ccccc3c2c1CC(C)(C)C#N
21,129 to 130,COC(=O)N1C(C(=O)O)CSC1c1ccccc1 (stereo not drawn)
22,296 to 298,CCOC(=O)c1c(-c2ccccc2C)c2cc3c(cc2[nH]c1=O)CCC3
23,122 to 124,CCCCCC(CCCCCO)NCc1cc2cc3c(cc2c2cc(OC)ccc12)OCO3 (stereo not drawn)
24,134 to 135,CS(=O)(=O)c1ccc(Oc2cc(OCc3ccccc3)c3[nH]c(C4=NCC(CC(N)=O)S4)cc3c2)cc1 (stereo not drawn)
25,99 to 101,Cc1cc(C)c2c(c1C)OC(C)(C)C2=O

row,melting point [°C],SMILES
1,238 to 239,NS(=O)(=O)c1ccc(-n2nc(C(F)F)cc2-c2nc3cccc(Cl)c3s2)cc1
2,163 to 166,CCC(O)C1C(N2CCN(C)CC2)=Nc2ccccc2N=C1N1CCN(C)CC1 (stereo not drawn)
3,56 to 60,NS(=O)(=O)OCCOc1cccc(O)c1
4,162 to 163,CCOCc1nc2c(N)nc3cccnc3c2n1CCCON=C1CCN(C(C)=O)CC1
5,85 to 100,CC(n1cncn1)C(O)(COc1ccc(F)cc1)C(C)(C)C (stereo not drawn)
6,88,COc1ccc2ccccc2c1CCCC(=O)O
7,88 to 90,C=CCN1C(=O)C(C)N(c2ccc(OCc3ccccc3)cc2)C1=S (stereo not drawn)
8,205 to 208,CN(C)C(=S)Oc1ccc2ncc([N+](=O)[O-])c(-c3ccccc3)c2c1
9,196,C#CCOc1cc(OCC#C)c2c(=O)cc(-c3ccc(OC)c(OCC#C)c3)oc2c1
10,153 to 156,CCOC(=O)CNc1cnc(-c2ccc(OCc3ccccc3)c(C34CC5CC(CC(C5)C3)C4)c2)nc1
11,173 to 175,O=S(=O)(c1ccccc1)n1ccc2ccc3c4cc(Br)ccc4[nH]c3c21
12,150 to 152,O=C(O)C=CC(=O)NCCC(=O)O
13,121 to 122,COC(=O)NC(C#N)Cc1ccc(OC)c(OC2CCCC2)c1 (stereo not drawn)
14,> 276,CNC(=O)c1ccc2cc(C(=O)O)ccc2c1
15,115 to 117,CCOC(=O)c1cc(C(O)(C(F)(F)F)C(F)(F)F)ccc1N
16,170 to 172,COc1ccc(CNS(=O)(=O)c2ccc(C(CC3CCCC3)C(=O)Nc3nc4ccc(OC)nc4s3)cc2)cc1 (stereo not drawn)
17,162 to 164,COC(=O)c1cc(N(C)C(C)=O)c(Cl)c(N(C)C(C)=O)c1
18,108 to 111,CSC(SC)=C(C(O)C(C)(C)C)n1cncn1 (stereo not drawn)
19,117 to 118,CNC(=O)n1nc(Oc2ncc(C(F)(F)F)cc2Cl)c(C)c1C
20,153 to 154,COc1nc(Nc2ccc(F)cc2F)c(C(=O)Cl)cc1F
21,121 to 122,NS(=O)(=O)c1cccnc1OCC1CC1
22,43 to 45,COc1cccc(C=CC(=O)Cl)c1
23,203 to 204,COc1ccc(NC(=O)Nc2c(Cl)cccc2Cl)cc1OC1CCCC1
24,133 to 138,O=C(CCC(O)=NO)c1cccs1
25,70,Cc1ccc(S(=O)(=O)OC(C#N)(c2ccccc2)C(F)(F)F)cc1 (stereo not drawn)
